Results: patent US20120165559A1, “Compounds Having a Physiological Effect” (priority 2009, published 2012)
Read-outs that look alike come from different tables or passages of the source.

Legend:
[1] = system: panelists; assay: Mint flavoring evaluated in fondant; assay type: in vivo; details: in a mint flavoring, dosage of 50 ppm
Protocol: The molecule was tested in a mint flavoring and evaluated in fondant at a dosage of 50 ppm.

[2] = system: skin and the mucous membranes, particularly of the mouth, of the nasal fossa and of the throat; assay: Organoleptic and physiological qualities of the compounds, noted by the inventors and flavor experts; assay type: in vivo; details: for Organoleptic qualities: Tables I-V
Text: The invention is based on the following observation, made by the inventors and backed up by flavor experts, that the physiological effects of N-ethyl-2-(2-isopropyl-5-methylcyclohexyl)acetamide: As mentioned above, the compounds of general formula (I) according to the invention have particular physiological effects. They cause a cool and/or warm sensation on the skin and the mucous membranes, particularly of the mouth, of the nasal fossa and of the throat. Some of these amides cause a more or less intense refreshing physiological effect giving the foods to which they are added a sensation of freshness, whereas others cause a warming physiological effect. Some of them can also cause other physiological effects, such as tingling or a piquant-burning physiological effect characteristic of substances that activate the trigeminal nerve, therefore giving the foods to which they are added a spicy sensation.

[3] = system: panelists / flavor experts; assay: Evaluation in mineral water; assay type: in vivo
Protocol: The molecule was evaluated in mineral water at a dosage of 30 ppm. […] The evaluation of the organoleptic properties of compound 10 was carried out in mineral water at a concentration of 1 ppm.

[4] = system: panelists; assay: Citrus fruit flavoring in fatty filling; assay type: in vivo; details: 10% in a citrus fruit flavoring, flavoring at 0.3% in fatty filling
Protocol: The molecule was tested at 10% in a citrus fruit flavoring, the flavoring obtained was at a dose of 0.3% in fatty filling.

[5] = system: panel of flavor experts; assay: Comparative evaluation of enantiomers 1′ and 1″ and the racemic mixture by a panel of flavor experts; assay type: in vivo; details: enantiomers taken separately versus each other and versus the racemic mixture
Text: The enantiopure compounds 1′ and 1″ obtained in examples 21 and 22 and also the racemic mixture of compound 1 obtained in example 2 were subjected to a panel of flavor experts for a comparative evaluation of the organoleptic and physiological qualities.

[6] = system: panelists; assay: Curry/capsicum flavoring evaluated in crackers; assay type: in vivo; details: flavoring in crackers at 5% (final dosage 500 ppm)
Text: Compound 10 was subsequently tested in a curry/capsicum flavoring and evaluated in crackers at 5% (final dosage: 500 ppm). [table]

[7] = system: panel of tasters; assay: Flavorings for oro-dental hygiene (mouthwashes, toothpaste); assay type: in vivo; details: alcoholic mouthwash, nonalcoholic mouthwash and toothpaste
Protocol: Compound 10 was tested in various applications: in an alcoholic mouthwash and a nonalcoholic mouthwash and in toothpaste. […] This molecule is very advantageous since it provides a tingling sensation on the edge of the tongue, which is piquant like a capsicum, and salivating. [table] Dosage of flavoring 0.2% Dosage of flavoring 0.2% Dosage of flavoring 1%

[8] = system: skin and the mucous membranes, particularly of the mouth, of the nasal fossa and of the throat; details: known from WO 2007/089252; cited from earlier work

Compound | Organoleptic qualities [2] | other results
CNC(=O)CC1CC(C)CCC1C(C)C (racemic) [Compound 1, N-methyl-2-(2-isopropyl-5-methylcyclohexyl)acetamide] |  | sensation perceived [1]: intense freshness which lasts for a few minutes; effectiveness as refreshing agent, in terms of intensity and of perception threshold ([2]; comparative study among the refreshing agents 1, 19, 15, 17, 18, 8, 9): the most effective; aromatic note of the drink ([3]; dosage of 30 ppm): minty, pine, liquoricy, warming, piquant, salivating; sensation felt ([3]; dosage of 30 ppm): freshness which came very rapidly after swallowing; sensation perceived [4]: persistent freshness, and a change in the lemon profile
C=C(C)[C@H]1CC[C@H](C)C[C@H]1CC(=O)NC [Compound 1′, N-methylamide of (1′S,2′S,5′S)-2-[(2′-isopropenyl-5′-methyl)cyclohex-1-yl]acetic acid] |  | difference in perception threshold and intensity of the refreshing effect felt [5]: did not make it possible to demonstrate any notable difference
C=C(C)[C@@H]1CC[C@@H](C)C[C@@H]1CC(=O)NC [Compound 1″, N-methylamide of (1′R,2′R,5′R)-2-[(2′-isopropenyl-5′-methyl)cyclohex-1-yl]acetic acid] |  | difference in perception threshold and intensity of the refreshing effect felt [5]: did not make it possible to demonstrate any notable difference
CC(C)CNC(=O)CC1CC(C)CCC1C(C)C (stereo not shown) [Compound 2, N-isobutyl-2-(2-isopropyl-5-methylcyclohexyl)acetamide] | Refreshing and tingling | 
CC1CCC(C(C)C)C(CC(=O)NCC(=O)O)C1 (stereo not shown) [Compound 3, [2-(2-isopropyl-5-methylcyclohexyl)acetylamino]acetatic acid] | Warm | 
CC(=O)OCCNC(=O)CC1CC(C)CCC1C(C)C (stereo not shown) [Compound 5, [2-(2-isopropyl-5-methylcyclohexyl)acetylamino]ethyl acetate] | Persistent mentholated | 
CC1CCC(C(C)C)C(CC(=O)NCCO)C1 (stereo not shown) [Compound 6, N-(2-hydroxyethyl)-2-(2-isopropyl-5-methylcyclohexyl)acetamide] | Refreshing and tingling, | 
CC1CCC(C(C)C)C(CC(=O)NCC(C)(C)O)C1 (stereo not shown) [Compound 7, N-(2-hydroxy-2-methylpropyl)-2-(2-isopropyl-5-methylcyclohexyl)acetamide] | Woody, piquant, and cold, | 
CNC(=O)C(C)C1CC(C)CCC1C(C)C (stereo not shown) [Compound 8, 2-(2-isopropyl-5-methylcyclohexyl)-N-methylpropionamide] | Piquant, slight | 
CNC(=O)CC(C)C1CC(C)CCC1C(C)C (stereo not shown) [Compound 9, 3-(2-isopropyl-5-methylcyclohexyl)-N-methylbutyramide] | Cool | 
COc1cc(CNC(=O)CC2CC(C)CCC2C(C)C)ccc1O (stereo not shown) [Compound 10, N-(4-hydroxy-3-methoxybenzyl)-2-(2-isopropyl-5-methylcyclohexyl)acetamide] | Warm and piquant like pepper, with a salivating effect | physiological effect [2]: strong piquant-burning physiological effect; sensation felt ([3]; concentration of 1 ppm): burning and salivation sensation which comes immediately after depositing on the tongue; duration of sensation [6]: more longlasting sensation; sensation felt [7]: piquant and warming sensation
COC(=O)c1ccccc1NC(=O)CC1CC(C)CCC1C(C)C (stereo not shown) [Compound 11, N-(2-methyloxycarbonylphenyl)-2-(2-isopropyl-5-methylcyclohexyl)acetamide] | Warm | physiological effect [2]: notable warming physiological effect, devoid of the piquant-burning aspect
CC1CCC(C(C)C)C(CC(=O)Nc2ccc(C#N)cc2)C1 (stereo not shown) [Compound 12, N-(4-cyanophenyl)-2-(2-isopropyl-5-methylcyclohexyl)acetamide] | Warm | 
CC1CCC(C(C)C)C(CC(=O)Nc2ccc(CC#N)cc2)C1 (stereo not shown) [Compound 13, N-(4-cyanomethylphenyl)-2-(2-isopropyl-5-methylcyclohexyl)acetamide] | Warm | 
CC1CCC(C(C)C)C(CC(=O)NCc2ccc3c(c2)OCO3)C1 (stereo not shown) [Compound 14, N-benzo[1,3]dioxol-5-ylmethyl-2-(2-isopropyl-5-methylcyclohexyl)acetamide] | Warm and cold at the back of the throat, with a vanilla note | 
C=C(C)C1CCC(C)CC1CC(=O)NC (stereo not shown) [Compound 15, 2-(2-isopropenyl-5-methylcyclohexyl)-N-methylacetamide] | Refreshing | 
C=C(C)C1CCC(C)CC1CC(=O)NCc1ccc(O)c(OC)c1 (stereo not shown) [Compound 16, N-(4-hydroxy-3-methoxybenzyl)-2-(2-isopropenyl-5-methylcyclohexyl)acetamide] | Powerful piquant with delayed effect, salivating, slightly woody | 
CNC(=O)CC1=C(C(C)C)CCC(C)C1 (stereo not shown) [Compound 17, 2-(2-isopropyl-5-methylcyclohex-1-enyl)-N-methylacetamide] | Refreshing | melting point: 82 °C
CNC(=O)C=C1CC(C)CCC1C(C)C (stereo not shown) [Compound 18, 2-(2-isopropyl-5-methylcyclohexylidene)-N-methylacetamide] | Refreshing | 
CNC(=O)CC1C=C(C)CCC1C(C)C (stereo not shown) [Compound 19, 2-(6-isopropyl-3-methylcyclohex-2-enyl)-N-methylacetamide] | Refreshing with a delayed | 
CCNC(=O)CC1CC(C)CCC1C(C)C (stereo not shown) [N-ethyl-2-(2-isopropyl-5-methylcyclohexyl)acetamide] |  | physiological effect [8]: refreshing agent
